For 80 compounds, RP-LC retention time results are on record in the METLIN SMRT retention time set (Domingo-Almenara et al. 2019).

A short description of this data set: gradient 5% acetonitrile 3 min, to 50% in 2 min, to 85% in 15 min, held 3 min, 100 µL/min. The note with it: column: Zorbax Extend-C18 2.1 x 50 mm; eluents: water / acetonitrile, 0.1% formic acid. The method in brief: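 Retention time was recorded from adduct peaks, which were picked computationally and each inspected manually. Pure standards ran in mixtures of ~100 molecules on HPLC coupled to a quadrupole time-of-flight mass spectrometer, in positive and negative ionization mode, through a Zorbax Extend-C18 column (2.1 × 50 mm, 1.8 μm) at 100 μL/min. Eluents were water and acetonitrile, each with 0.1% formic acid.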
For `O=[N+]([O-])c1ccc(-c2nc(N3CCCCCC3)c3ccccc3n2)cc1`, the RP-LC retention time amounted to 820 s. The compound `COc1cc(-c2nc3ncccn3c2Nc2ccc(C(C)C)cc2)ccc1O` yielded an RP-LC retention time of 711 s.

In the case of `Cc1ccsc1C(=O)N1CCC2(CC1)N=C(c1cccc(Br)c1)NO2`, the RP-LC retention time is 922 s. Consider `CSc1ccc(CNC(=O)c2[nH]c3cc(C)sc3c2CN2CCOCC2)cc1`, for which the RP-LC retention time was 709 s. On to `COCCn1cc(C(=O)Nc2ccc(C(C)=O)cc2)c2nn(-c3ccccc3)c(=O)c-2c1`, for which the RP-LC retention time was 865 s. In the case of `O=C1CC(C(=O)N2CCc3ccccc32)CN1CCc1c[nH]c2ccc(F)cc12` (stereo not given), the RP-LC retention time came to 1270 s. The compound `Cc1cc(-c2nnc(-c3ccccc3)o2)c(C)n1CC(=O)Nc1cccc(F)c1` registered an RP-LC retention time of 938 s. Compound `Clc1ccc(OCc2nnc3sc(-c4ccc5ccccc5n4)nn23)cc1` showed an RP-LC retention time of 1210 s. In the case of `CCNc1nc(-c2ccc(Br)cc2)cs1`, the RP-LC retention time is 887 s. The same measure for `Cc1csc(-c2ccc(N3CCN(C(=O)c4ccccc4Br)CC3)nc2)n1`: 884 s; for `CC1(C)CC(NC(=O)COc2ccc(Cl)cc2Br)CC(C)(C)N1`: 661 s; for `Cc1noc(-c2cc(=O)n(CC(=O)Nc3cccc(C#N)c3)c3ccccc23)n1`: 831 s. On to `COc1ccc(OC)c(S(=O)(=O)N2CCC3(C2)C(=O)N(C)c2ccccc23)c1` (stereo not given), for which the RP-LC retention time came to 853 s. The compound `Cc1cc2nn(CC(=O)Nc3ccccc3)c(=O)n2c(N2CCCC2)n1` returned an RP-LC retention time of 703 s. In turn, `CC(C)C(=O)NCc1csc(C2CCCN(C(=O)c3cc(F)ccc3F)C2)n1` (stereo not given) registered an RP-LC retention time of 730 s. To `COCc1nnc2n1CCC(NC(=O)c1ccoc1)CC2` (stereo not given) belongs 561 s; to `CCOc1cccc(-c2noc(Cn3c(=O)n(-c4ccccc4F)c(=O)c4sccc43)n2)c1`, 1050 s; to `O=C(C1=CN(c2ccc(F)c(Cl)c2)c2ccccc2S1(=O)=O)N1CCCC1`, 817 s. With `CCC(C)C(NC(=O)c1ccc(C)cc1C)C(=O)Nc1nc2ccccc2[nH]1` (stereo not given), the RP-LC retention time worked out at 786 s. As for `COc1ccc(-n2ccn3c(CCC(=O)N4CCN(c5ccccn5)CC4)nnc3c2=O)cc1`, the RP-LC retention time worked out at 663 s.

On to `COc1cccc(-c2noc(C3CCCN3C(=O)Nc3cc(C)ccc3C)n2)c1` (stereo not given), for which the RP-LC retention time was 1020 s. The compound `O=C(O)C1c2ccccc2CC(=O)N1Cc1ccccc1` (stereo not given) gave an RP-LC retention time of 723 s. The same measure for `CCCc1cc(N2CCN(C(=O)c3ccc(F)cc3)CC2)nc2nncn12`: 620 s; for `CCOC(=O)c1ccc(NC(=O)c2cc3c(=O)n(C)c4ccccc4n3n2)cc1`: 981 s. For `Cn1c(=O)c2cc(C(=O)NCC3CCCCC3)nn2c2ccccc21`, the RP-LC retention time came out at 957 s. To `O=C1c2ccccc2C(=O)c2oc(-c3ccccc3)nc21` belongs 1150 s. `CCN(CC)C(=O)c1cnc2snc(C)c2c1N1CCC(C(=O)Nc2cc(F)ccc2F)CC1` yielded an RP-LC retention time of 940 s. `O=C(NCCc1ccccc1)C1CCCN(C(=O)c2cc(-c3ccccn3)n[nH]2)C1` (stereo not given): the RP-LC retention time amounted to 705 s.

For `CC(C)NC(=O)C1CCN(c2nc3ccc(-c4cncnc4)nc3s2)CC1`, the RP-LC retention time was determined as 703 s. In turn, `CC(C)Cn1c(=O)c(N2CCN(C(=O)Cc3cccs3)CC2)nc2ccncc21` returned an RP-LC retention time of 592 s. As to `COc1ccc(-n2c(=O)c(C(=O)NCC(C)C)c(O)c3cccnc32)cc1`, the RP-LC retention time was 1160 s. With `CCCn1cc(S(=O)(=O)Nc2cccc(CC)c2)c2cccnc21`, the RP-LC retention time is 943 s.

As for `Cc1ccc(-c2noc(-c3nnc(NCCCN4CCOCC4)c4ccccc34)n2)cc1`, the RP-LC retention time worked out at 735 s.

In turn, `Cc1ccccc1-c1nc2cnccn2c1NCCC(=O)NCc1ccccc1F` gave an RP-LC retention time of 660 s. `CC(C)NC(=O)C1CCCN(C(=O)Nc2ccc(NC(=O)Nc3ccccc3)cc2)C1` (stereo not given) registered an RP-LC retention time of 720 s. In turn, `COc1cccc(CNC(=O)c2nsc(C(=O)N3CCN(c4ccccn4)CC3)c2N)c1` had an RP-LC retention time of 660 s. To `O=C(NCCc1c[nH]c2ccc(Cl)cc12)c1ccc(-n2nnc3cccnc32)cc1` belongs 922 s; to `CC(C)CN(CC(C)C)c1nc(-c2ccc(Cl)cc2)nc2ccccc12`, 1130 s; to `CCC(=O)N1CCc2cc(N3CC(C(=O)Nc4cccc(F)c4)CC3=O)ccc21` (stereo not given), 763 s. `CCCN1C(=O)COc2ccc(-c3csc(NC(=O)CC(C)C)n3)cc21`: the RP-LC retention time was 1000 s.

In the case of `Cn1cnnc1SCC(=O)N1CCCCCC1`, the RP-LC retention time is 581 s. In turn, `COc1ccc2c(c1)CCc1sc(NC(=O)c3ccco3)nc1-2` showed an RP-LC retention time of 961 s.

The compound `CCOC(=O)CCC(=O)NCC1CN(c2ccc(F)cc2)C(=O)O1` (stereo not given) returned an RP-LC retention time of 666 s.

In the case of `Cn1c(C(=O)Nc2ccccc2F)cc2c(=O)oc3ccccc3c21`, the RP-LC retention time is 919 s. On to `Cc1ccc(N2C(=O)C3N=NN(Cc4nc(-c5ccc(OC(C)C)cc5)no4)C3C2=O)cc1` (stereo not given), for which the RP-LC retention time was determined as 1110 s. As for `CCCC(=O)NC1(c2nc(-c3ccncc3)no2)CCCCC1`, the RP-LC retention time amounted to 747 s.

Take `CCC(C)(C)N=C(NC#N)Nc1cccnc1`: the RP-LC retention time is 689 s. As for `CCCN1CCN(CCCNC(=O)C2CCCN(c3nc4cccnc4s3)C2)CC1` (stereo not given), the RP-LC retention time was 573 s. Compound `O=C(NCCCN1CCOCC1)c1ccc(-c2c(-c3ccc(F)cc3)ncn2C2CCCC2)o1` had an RP-LC retention time of 590 s. `CCc1ccc(NC(=O)Cn2nc3cc(-c4ccccc4)nc(C)n3c2=O)cc1` registered an RP-LC retention time of 899 s. The same measure for `O=C(Cc1noc2ccccc12)NCc1cc(-c2ccc(F)cc2F)on1`: 818 s. To `COc1ccc(-c2ccc3nc(N4CCC(C(=O)N5CCOCC5)CC4)sc3n2)cc1` belongs 822 s; to `O=C([C@@H]1C[C@H](F)CN1S(=O)(=O)c1ccc(F)cc1)N1CCOCC1`, 664 s. To `Cc1ccc(-n2c(N3CCCC(C(=O)NCc4ccncc4)C3)nc3ccsc3c2=O)cc1` (stereo not given) belongs 627 s.

In turn, `Cc1nc2cc(-c3noc(-c4ccc5ccccc5n4)n3)ccc2o1` gave an RP-LC retention time of 998 s.

With `Cc1ccc(NC(=O)N2CCCC(C)(C(=O)NCc3ccccc3)C2)cc1Cl` (stereo not given), the RP-LC retention time was determined as 995 s. Compound `COCc1noc(C2CCCCN2C(=O)c2cnccn2)n1` (stereo not given) displayed an RP-LC retention time of 596 s.

As for `CCC(CC)N1CCN(C(=O)c2nc(N3CCSCC3)c3cn(C)nc3n2)CC1`, the RP-LC retention time turned out to be 574 s. `Cc1ccccc1CNC(=O)c1ccc2c(c1)n(C)c(=O)c1ccnn12` gave an RP-LC retention time of 739 s. In the case of `CCc1noc(NC(C)=O)c1-c1ccc(C)c(S(=O)(=O)Nc2cc(Cl)c(OC)cc2OC)c1`, the RP-LC retention time came to 859 s. The same measure for `CCOC(=O)c1c(NCCc2c[nH]c3ccccc23)c2ccc(Cl)cc2[nH]c1=O`: 833 s; for `CCCN(CCC)C(=O)Cn1c(CO)nc2ccccc21`: 623 s; for `Cc1ccc(-n2c(N3CCC(C(=O)NCCC(C)C)CC3)nc3ccsc3c2=O)cc1`: 890 s. `CCCN1CCN(CCCNC(=O)C2CCN(Cc3cn(C)c4ccc(OC)cc34)CC2)CC1` showed an RP-LC retention time of 533 s. `Cc1ccc(Cl)cc1NC(=O)N1CCC(CC(=O)N2CCCCC2)CC1`: the RP-LC retention time is 801 s. Compound `CCN1CCN(c2cc(C)c3cc(NC(=S)NC4CCCC4)ccc3n2)CC1` had an RP-LC retention time of 572 s.

`CC(=O)N(Cc1nn(C)c2c1CN(S(=O)(=O)c1cccc(F)c1)CC2)c1ccccc1` yielded an RP-LC retention time of 796 s. `O=C1OCC/C1=C\c1ccc2c(c1)OCO2` showed an RP-LC retention time of 830 s. As for `COc1ncc(C(=O)NCc2ccc(C(F)(F)F)cc2)cn1`, the RP-LC retention time was 773 s.

For `CCN1CCn2cc(S(=O)(=O)N3CCN(c4ccccc4)CC3)cc2C1=O`, the RP-LC retention time was 684 s. For the compound `CCn1ccc2cc(S(=O)(=O)N3CCCC(C(=O)NCCc4ccco4)C3)ccc21` (stereo not given), the RP-LC retention time is 925 s. `CCn1c(CNC(=O)C2CCC2)nc2c1CN(S(=O)(=O)c1ccc(F)cc1)CC2`: the RP-LC retention time worked out at 644 s. Consider `CC(C)N1CCN(C(=O)CN2CCN(Cc3ccccc3)C2=O)CC1`, for which the RP-LC retention time came to 565 s. Take `CC(C)(C)C(=O)NC1CCN(C(=O)C2CC2)C1` (stereo not given): the RP-LC retention time came to 623 s. `CCc1nnc(NS(=O)(=O)c2ccc(NC(=O)c3ccc([N+](=O)[O-])s3)cc2)s1` had an RP-LC retention time of 769 s. With `Cc1ccnc(N2CCC(C(=O)NCCCN3CCCc4ccccc43)CC2)n1`, the RP-LC retention time turned out to be 665 s.

`CC(=O)Nc1ccc(C2(C(=O)NCc3ccc(Cl)cc3)CCC2)cc1` gave an RP-LC retention time of 785 s. The compound `CC1CCCN(C(=O)c2ccc(CN3CCN(Cc4ccc(F)cc4)C(=O)C3=O)cc2)C1` (stereo not given) yielded an RP-LC retention time of 788 s. The same measure for `CSc1cccc(NC(=O)N2CCC(c3nc(C(=O)N(C)C)c(C)o3)CC2)c1`: 732 s; for `CCOc1ccccc1CN1C[C@@H](CO)[C@H](c2ccncc2)C1`: 620 s.
